{
  "source": "patent US12636366B2",
  "about": "“Ruthenium (II) complexes and conjugates thereof for use as photosensitizer agent in photodynamic therapy” (Paris Sciences et Lettres, priority 2019, dated 2026)",
  "test": "In vivo biodistribution in healthy BALB/c mice (ruthenium by ICP-MS)",
  "parameters": "species or system mouse",
  "procedure": "Twenty four, 8 week old healthy BALB/c female mice were used in this study. 0.015 mg/ml solution of complex 6 was prepared in Milli-Q water and filtrated (0.2 μm cellulose acetate membrane, VWR). For the introduction of solution of complex 6, IV injection was used (300 μl per mouse). Organ samples, including brain, liver, spleen, kidneys and lung, were collected from treated mice after 2 h, 6 h and 24 h post-injection. Each time six mice were sacrificed. Remaining six animals were used as a control.\nFor these experiments, we have decided to use the chloride salt of the complex 6 to improve its solubility. The time-dependent biodistribution of this compound in different organs was determined in healthy 8-week-old BALB/c mice according to the above-described method. The amount of ruthenium in the tested samples was assessed using Inductive Coupled Plasma Mass-Spectrometry (ICP-MS). […] After 24 h, the amount of ruthenium in the liver decreased. This is a very promising result that could indicate that complex 6 is metabolized by the liver in living organisms.",
  "data": [
    {"substance": "(4,4′-Dimethyl-2,2′-bipyridine)bis(4,7-diphenyl-1,10-phenanthroline)ruthenium(II) hexafluorophosphate [Compound 6]", "values": [
      {"measurement": "Levels of Ru in harvested organs (brain, liver, spleen, kidneys, lung)", "setting": "IV injection, 6 h post injection, chloride salt", "value": "only liver had clearly increased levels of Ru"},
      {"measurement": "Amount of ruthenium in the liver", "setting": "IV injection, after 24 h, chloride salt", "value": "decreased"},
      {"measurement": "Behaviour of treated animals", "setting": "IV injection, chloride salt", "value": "behave normally, without signs of pain, stress or discomfort"},
      {"measurement": "Blood analysis, immune response compared to untreated control", "setting": "after 24 h treatment", "value": "no sign of immune response"}
    ]}
  ]
}
